Changes are numbered by the printed parent chain.
Assays:
R261Q PAH mutant = target: T1, R261Q PAH mutant (Homo sapiens, UniProt P00439, R261Q); test: PKU-mutant activity enhancement without chemical denaturants, CE-UV; format: biochemical; details: ligand 20 μM, no denaturant
T1 construct: made in house; the paragraph itself says 'eukaryotic cell cultures' (pMAL vector)
T1 sequence (P00439 1-452 R261Q): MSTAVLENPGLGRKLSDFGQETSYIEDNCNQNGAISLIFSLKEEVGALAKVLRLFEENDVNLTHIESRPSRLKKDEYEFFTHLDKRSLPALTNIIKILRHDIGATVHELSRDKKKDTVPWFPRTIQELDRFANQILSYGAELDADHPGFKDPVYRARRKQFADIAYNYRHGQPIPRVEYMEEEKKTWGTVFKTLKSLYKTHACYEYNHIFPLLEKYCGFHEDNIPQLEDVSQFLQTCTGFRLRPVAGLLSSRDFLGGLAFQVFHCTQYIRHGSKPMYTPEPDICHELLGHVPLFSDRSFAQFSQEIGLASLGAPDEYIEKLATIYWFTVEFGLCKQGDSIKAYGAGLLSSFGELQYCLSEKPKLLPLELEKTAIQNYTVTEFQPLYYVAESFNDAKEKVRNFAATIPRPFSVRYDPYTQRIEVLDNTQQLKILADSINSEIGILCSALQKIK
Procedure: Expression of recombinant human WT-PAH and two PAH mutants ([…]) as fusion protein with maltose-binding protein in […] using pMAL expression vector was performed by the Martinez laboratory at the University of Bergen as described in Svebak et al., Biochem. J., 1995, 306, 589-597. Briefly, purification of the fusion proteins expressed in the pMAL vector system was performed using affinity chromatography followed by size-exclusion chromatography to remove low molecular weight components. Subsequently, the fusion proteins were cleaved by the restriction protease factor Xa and then phosphorylated by cyclic adenosine monophosphate (cAMP)-dependent protein kinase. The two clinically relevant PAH mutants, I65T and R261Q comprise single-point mutations in the regulatory and catalytic domain, respectively which are associated with highly variable phenotypes ranging from mild to classical PKU. For instance, patients with R261Q genotypes are reported to have inconsistent responses to BH4 therapy. In this work, I65T and R261Q PAH mutants were measured to have residual catalytic activities of (35±1)% and (5±0.5)% relative to WT PAH under standardized conditions (i.e., enzyme concentrations, assay buffer etc.), respectively. Stock solutions of WT-PAH and PAH mutants were prepared in enzyme reaction buffer (20 mM HEPES pH 7.0, 200 mM NaCl), and divided into separate 10 μL aliquots in 0.5 mL sterilized centrifuge tubes prior to storage at −80° C. Note that all enzyme assays were performed on aliquots of frozen enzymes thawed slowly in the fridge prior to daily use.
Tetrameric human phenylalanine hydroxylase (PAH) enzyme kinetic assays were performed off-line under standardized conditions prior to quantification of Tyr formation by CE with UV detection. Enzyme assays were performed by first mixing together Phe (1 mM), catalase (100 nM) and PAH (0.25 μM/subunit) in a reaction buffer (20 mM HEPES and 200 mM NaCl, pH 7.0) that were equilibrated at 25° C. for 4 min. Then, ferrous (Fe^2+) ammonium sulfate (100 μM) was added to the solution for 1 min and the reaction was subsequently initiated by addition of BH4 ([…]) with DTT (5 mM) using a total volume of 100 μL. The reaction mixture was then vortexed for 60 s followed by sonication for 2 min prior to centrifugation for 10 s at 4 g and storage in a refrigerator (+4° C.). An aliquot (20 μL) was withdrawn from the quenched enzyme reaction and placed in a micro vial containing Me-Tyr as IS (100 μM) prior to CE analysis. The stability of the quenched enzyme reaction was confirmed by intermittent analysis of PAH activity over 6 h at room temperature, and no significant changes in the Tyr/IS or Phe/Tyr response ratio were measured. Enzymatic reactions were performed for both WT-PAH and two PAH mutants by pre-equilibrating each ligand for 10 min prior to addition of ferrous ion and BH4/DDT as described in enzyme reaction protocol in order to assess for ligand-induced PAH inhibition or activation.
For instance, a recovery of 50% of residual enzyme activity was achieved without ligand when PAH was incubated in 8.0 M urea after its dilution to 0.5 M urea to trigger protein refolding. In order to further reduce enzyme reversibility, the recovery of PAH activity was subsequently assessed when it was incubated using 6.0 M GndCl for 10 min and subsequently diluted to 0.5 M GndCl in the presence or absence of screen-positive ligands (20 μM) in enzyme reaction buffer with PAH activity measurements performed by CE as described previously. […] Two lead compounds and several analogs of SA were subsequently tested using two different mutants of PAH (I65T and R261Q) without chemical denaturants after the two-tiered screening.

PAH [1] = target: T2, PAH (Homo sapiens, UniProt P00439); details: 100 μM; cited from earlier work
T2 sequence (P00439 1-452): T1 sequence (P00439 1-452 R261Q) with Q261R

PAH [2] = target: T3, PAH (Mus musculus, UniProt P16331); details: cited from earlier work
T3 construct: inducing a 2-fold enhancement in PAH activity in WT mouse liver; host or cells: liver of WT mice
T3 sequence (P16331 1-453): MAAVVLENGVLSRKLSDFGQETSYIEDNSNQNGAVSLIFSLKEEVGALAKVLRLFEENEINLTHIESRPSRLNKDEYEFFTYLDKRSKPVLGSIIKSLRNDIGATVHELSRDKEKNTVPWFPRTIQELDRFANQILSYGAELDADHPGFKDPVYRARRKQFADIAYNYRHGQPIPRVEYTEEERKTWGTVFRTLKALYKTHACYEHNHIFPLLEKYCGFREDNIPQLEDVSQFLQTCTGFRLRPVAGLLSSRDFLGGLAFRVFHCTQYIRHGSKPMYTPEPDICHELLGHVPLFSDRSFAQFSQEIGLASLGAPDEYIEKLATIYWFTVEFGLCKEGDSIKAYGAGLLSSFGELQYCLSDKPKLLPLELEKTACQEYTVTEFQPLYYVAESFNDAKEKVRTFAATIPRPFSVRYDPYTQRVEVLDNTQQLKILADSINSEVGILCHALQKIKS

For `Cc1ccnc(-n2c(=S)[nH]c3sc(C)c(C)c3c2=O)c1` [compound IV, 5,6-dimethyl-3-(4-methyl-2-pyridinyl)-2-thioxo-2,3-dihydrothieno[2,3-d] pyrimidin-4(1H)-one], the “activity enhancement of R261Q PAH mutant” value (R261Q PAH mutant) is listed as ~1.5 fold, the “shift of denaturation temperature relative to ligand-free enzyme” value (PAH [1]) is listed as > 7 °C and the “enhancement in PAH activity in WT mouse liver” value (PAH [2]) is listed as 2 fold.

For `Nc1c(-c2ccc3ccccc3n2)c2ccc([N+](=O)[O-])cc2c(=O)n1Cc1ccccc1` [compound III, 3-amino-2-benzyl-7-nitro-4-(2-quinolyl)-1,2-dihydroisoquinolin-1-one], the “activity enhancement of R261Q PAH mutant” value (R261Q PAH mutant; listed as HI) is given as ~1.5 fold, the “shift of denaturation temperature relative to ligand-free enzyme” value (PAH [1]) is given as “greater than 14 °C” and the “enhancement in PAH activity in WT mouse liver” value (PAH [2]) is given as 2 fold.
